Where two headings read alike, the source gives them in different places.
What was measured:
[1] = Amine-HCl salt precipitation potential index (Salt PPI) relative to ammonia salt; assay type: physicochemical
Description: Without limiting this specification to any particular theory of operation, the overall efficiency of a given amine may be predicted upon assessment of several factors. One such factor is the amine-HCl salt precipitation potential index (“Salt PPI”). The Salt PPI may also be known by those in the art as the salt volatility index. These indices are merely a comparison of the precipitation potential of the amine salt to the salt of a typical neutralizing compound used in hydrocarbon refining, ammonia.
Salt PPI may be calculated from the equation: […]
If one were to substitute the vapor pressure of ammonia for the vapor pressure of the amine in the equation, the Salt PPI would be 1.0. Effective amines are those that are as good, if not better than the typical additive, ammonia. Thus, effective amines would have a Salt PPI of equal to or less than 1.0. Other neutralizers commonly used in hydrocarbon refining are trimethylamine and N-methylmorpholine.

pKa of the amine = assay type: physicochemical
Description: Another factor indicative of the overall efficiency of a given amine is the logarithm of the acid dissociation constant, pKa. Generally, amines with higher pKa values are more efficient neutralizers. Accordingly, in another embodiment, the treatment composition may comprise an amine with a pKa equal to or greater than about 5.0.

Boiling point = conditions: Table 2
[2] = Neutralization efficiency by two-phase titration (pH at amine titrant concentration); assay type: physicochemical; conditions: 100° C.; for Neutral. Efficiency pH at 250 ppm: 250 ppm amine titrant; for Neutral. Efficiency pH at 500 ppm: 500 ppm amine titrant; for Neutral. Efficiency pH at 1000 ppm: 1000 ppm amine titrant
Description: Several amines were tested to determine their efficiencies in neutralizing acidic species and reducing deposits of hydrochloride and amine salts. The neutralization efficiency of these amines was tested using two-phase titration. For each amine tested, a titrand (100 ml) was placed in a flask. The titrand was designed to simulate an initial condensate and comprised 90 vol % naphtha and 10 vol % acidic water. The titrand was heated to 100° C. and maintained at that temperature while amine titrant was added to the flask.
A second set of tests were performed using some of the effective amines above. Additional tertiary amines were also tested and found to be effective. The additional tertiary amines were N-methyl piperidine, 2-dimethylamino 2-methyl 1-propanol (“DMAMP”) in an azeotropic solution comprising 80 wt % amine, N,N,N′,N′-tetramethyldiamino methane (“TMMD”), dimethyl tertiary butanolamine (“DMTBA”), and dimethyl methoxypropylamine (“DMMOPA”). The neutralization efficiency of these amines was tested using two-phase titration. For each amine tested, a titrand (100 ml) was placed in a flask. The titrand was designed to simulate an initial condensate and comprised 90 vol % naphtha and 10 vol % acidic water. The titrand was heated to 100° C. and maintained at that temperature while amine titrant was added to the flask. The tests were repeated 3 times in the second set of tests. The data in Table 2 are the averages of the 3 repeated tests.

[3] = Table 2, average over 225 to 300° F., ammonia benchmark = 1.0
[4] = Table 1, average over 225 to 300° F., ammonia benchmark = 1.0
[5] = Table 2, second set, averages of 3 repeated tests
[6] = Table 3, exemplary treatment composition
[7] = Table 4, exemplary treatment composition

SMILES	Salt PPI [1, 3]	Boiling Point (Boiling point) [°C]	Solubility Oil/Water (Solubility Oil/Water; Table 2)	Neutral. Efficiency pH at 250 ppm ([2]; Table 1, first set of tests)	Neutral. Efficiency pH at 500 ppm ([2]; Table 1, first set of tests)	Neutral. Efficiency pH at 1000 ppm ([2]; Table 1, first set of tests)	Salt PPI [1, 4]	pKa (pKa of the amine; Table 1)	pKa (pKa of the amine; Table 1, read-out: pKa)	Solubility Oil/Water (Solubility Oil/Water; Table 1)	Neutral. Efficiency pH at 250 ppm [2, 5]	Neutral. Efficiency pH at 500 ppm [2, 5]	Neutral. Efficiency pH at 1000 ppm [2, 5]	pKa (pKa of the amine; Table 2, read-out: pKa)	Salt PPI ([1]; ammonia salt is the benchmark)	Solubility Oil/Water (Solubility Oil/Water; [6])	Solubility Oil/Water (Solubility Oil/Water; [7])	pKa (pKa of the amine; Table 2)
CN(C)C(C)(C)CO [Dimethyl tertiarybutanolamine (DMTBA), dimethyl tertiary butanolamine]	0.32	150	Water															8.9
NCc1ccco1 [Furfurylamine, furfurylamine]				2.6	6.5	8.5	0.38		8.89	Water								
CN(C)C [Trimethylamine (TMA), Trimethylamine, reference compound]	0.10	2.87	Water	2.6	8.0	8.8	0.10		9.76	Water	2.6	8.0	8.8					9.76
CN(C)C(C)(C)CO [2-dimethylamino 2-methyl 1-propanol]														10.2				
CN(C)C1CCCCC1 [Dimethylcyclohexylamine, dimethylcyclohexylamine]				1.8	1.9	5.2	0.10		10									
CC(C)C(C)N (stereo not shown) [1,2 Dimethyl propyl amine, 1,2 dimethylpropylamine]	0.30	87	Water	1.4	8.5	9.6	<0.1		9.9	Water	1.4	8.5	9.6					
CCN(O)CC [Diethylhydroxylamine]				2.4	4.1	5.0	<0.1		5.61	Water								
CN1CCN(C)CC1 [1,4-dimethylpiperazine]	0.18	132	Water	3.7	5.5	7.6	<0.1		8.2	Water	3.7	5.5	7.6			Water	Water	
C#CCN(CC)CC [Diethylpropargylamine, diethylpropargylamine]				2.2	3.6	5.9	0.12		7.7									
CN(C)CCN(C)C [N,N,N′,N′-tetramethylethylenediamine]	0.48	122	Water	4.7	6.7	8.3	0.27		8.97	Water	4.7	6.7	8.3					8.97
CN(C)C(C)(C)CO [2-Dimethylamino 2-methyl 2-propanol (DMAMP) 80% azeotrope so] [2-dimethylamino 2-methyl 1-propanol]	0.27	98	Water								2.3	6.3	9.5					
COCCCN(C)C [Dimethyl methoxypropyl-amine (DMMOPA), dimethyl methoxypropylamine]	0.20	124	Water															

Second part, led by results:

Salt PPI [1, 3]	Boiling Point (Boiling point) [°C]	Solubility Oil/Water (Solubility Oil/Water; Table 2)	Neutral. Efficiency pH at 250 ppm ([2]; Table 1, first set of tests)	Neutral. Efficiency pH at 500 ppm ([2]; Table 1, first set of tests)	Neutral. Efficiency pH at 1000 ppm ([2]; Table 1, first set of tests)	Salt PPI [1, 4]	pKa (pKa of the amine; Table 1)	pKa (pKa of the amine; Table 1, read-out: pKa)	Solubility Oil/Water (Solubility Oil/Water; Table 1)	Neutral. Efficiency pH at 250 ppm [2, 5]	Neutral. Efficiency pH at 500 ppm [2, 5]	Neutral. Efficiency pH at 1000 ppm [2, 5]	pKa (pKa of the amine; Table 2, read-out: pKa)	Salt PPI ([1]; ammonia salt is the benchmark)	Solubility Oil/Water (Solubility Oil/Water; [6])	Solubility Oil/Water (Solubility Oil/Water; [7])	SMILES	pKa (pKa of the amine; Table 2)
			2.2	3.0	7.6	0.24	10.91										CCCNCCC [di-N-propyl amine, di-N-propylamine]	
0.18	116		2.4	5.4	6.8	0.18		7.1		2.4	5.4	6.8					CN1CCOCC1 [N-methylmorpholine (NMM), N-methylmorpholine, reference compound]	
			2.4	2.8	5.6	<0.1		10.1									CCCN(C)CCC [N-methyldipropylamine]	
0.24	107	Water								2.1	7.5	8.1	10.1				CN1CCCCC1 [N-methyl piperidine]	
														1.0			N [ammonia, reference compound]	
			1.9	2.0	5.0	<0.1		10.3									CCCCN(C)CCCC [N-methyldibutylamine]	
0.30										7.54	8.87	9.25					CN(C)CN(C)C [N,N,N′,N′-tetramethyldiaminomethane]	
0.10	81	Water	2.2	6.8	8.1	<0.1		10.3	Water	2.2	6.8	8.1			Water	Water	CN1CCCC1 [N-methylpyrrolidine]	

Reference: patent US10253274B2, “Compounds and methods for inhibiting corrosion in hydrocarbon processing units” (General Electric Company, priority 2012, dated 2019)
